The test system of assay [1] is thrombus formation in the carotid artery (70% FeCl3 patch). As to the kind of experiment: Anti-thrombotic activity, FeCl3-induced carotid artery thrombosis. Format: in vivo, Male Wistar rats. Particulars: po, % animals protected, read-out: Antithrombotic activity (% protection); for responders at 90 µmol/kg: 90 μmol/kg p.o. As for the experimental part: Anti-Thrombotic Activity Assessment Experimental Procedure Male Wistar rats weighing 250-300 g were used after an acclimatization period of five days, and animals were divided in groups of 8 animals each for the treatments. […] The vehicle used to dissolve the products consisted of 1% Cremophor EL 27963, 1% Tween 80 and 0.5% Methocel E-15 in distilled water. After a fasting period of 8 hours with free access to drinking water each product was given by gavage 1 hour before induction of thrombosis. Thrombus formation was induced using a patch embedded with 70% FeCl3 solution applied onto the carotid artery using the same procedure described by Feuerstein G Z et al and later modified by Kurz et al (Feuerstein G Z, et al Artherioscler. Thromb. Vasc. Biol. 1999, 19: 2554-2562, Kurz K D, et al Thromb. Res. 1990, 60:269-280). Anti-thrombotic efficacy was evaluated at different times after dosage. Rats were anesthetized with sodium pentobarbital and then placed on a dorsal position over a thermal blanket laid on a surgical board and heated at 37° C. The left carotid artery was dissected and an electromagnetic blood flow probe was placed on the artery to measure blood flow. After application of the thrombotic stimuli, blood flow was monitored for the following 30 minutes. The vessel was considered occluded by the thrombus when flow reached 0.0 ml/min. Data were analysed by contingency tables using the Graph Pad Prism Program. P values were calculated using Fisher's exact test, values of p<0.05 were considered statistically significant. Results were expressed as % animals protected.

The subject of assay [2] is coronary angina caused by coronary obstruction (35% ferric chloride patch on left anterior descending coronary artery). As to the kind of experiment: Anti-anginal activity, ferric chloride-induced coronary angina (ECG S-wave). Format: in vivo, Male Wistar rats. The following applies: Rattus norvegicus, po, read-out: Antianginal activity (% inhibition of S-wave decrease). As to the method: Anti-Anginal Activity Assessment
Male Wistar rats weighing 250-300 g were used after an acclimatization period of five days, and animals were divided in groups of 8 for each treatment. In all experiments, rats were treated with 90 μmol/kg of each product by oral gavage using an administration volume of 10 ml/kg unless otherwise stated. The vehicle used to dissolve the products consisted of 1% Cremophor EL 27963, 1% Tween 80 and 0.5% Methocel E-15 in distilled water. […]
The procedure used to test the anti-anginal activity was that described by Hirata Y et al (Hirata Y, et al. Journal of Cardiovascular Pharmacology 1998, 31: 322-326).
After treatment, animals were anaesthetized with pentobarbital and electrodes were set for standard limb lead II electrocardiogram recording (Grass polygraph model 7, amplifier 7DA and pre-amplifier 7P1).
To induce coronary angina caused by coronary obstruction, a 35%-ferric chloride embedded mini patch was applied onto the left anterior descending coronary artery just below the left auricle. In all groups, after application of the patch, the ECG was recorded during 10 minutes. The shortening of the S-wave amplitude was measured on the recorded ECG. Data were collected with a Biopac system model MP100 connected to a Pentium PC. Results were expressed as % inhibition of S-wave decrease vs the untreated control.

Setting [3] is: Rattus norvegicus, 2 h, 2 h after dosage.
Where [4] appears, read: Rattus norvegicus, 4 h, 4 h after dosage.
Where [5] appears, read: 1 h, rat, 90 μmol/kg p.o., 1 h, vs untreated control.
Where [6] appears, read: 2 h, rat, 90 μmol/kg p.o., 2 h, vs untreated control.
Setting [7] is: Rattus norvegicus, 1 h, 1 h after dosage.
[8] abbreviates: 4 h, rat, 90 μmol/kg p.o., 4 h, vs untreated control.
[9] abbreviates: Rattus norvegicus, 0.5 h, ½ h after dosage.

Read-outs that look alike come from different tables or passages of the source.

Regarding `O=[N+]([O-])O[C@@H]1CO[C@H]2[C@@H]1OC[C@@H]2S` [Comp 1, (3R,3aS,6S,6aS)-6-(mercapto)hexahydrofuro[3,2-b]furan-3-yl nitrate, reference compound], in assay [1] (Rattus norvegicus, 1 h, 230 μmol/kg p.o., 1 h after dosage), the responders at 230 µmol/kg turned out to be 50%. For the same molecule, the figures for the responders at 90 µmol/kg in assay [1] (setting [3]) and in assay [1] (setting [4]) were 32% and 16%, respectively. In addition, the inhibition in vivo at 90 µmol/kg in assay [2] (0.5 h, rat, 90 μmol/kg p.o., ½ h, vs untreated control) worked out at 0%; in assay [2] (setting [5]), 0%; in assay [2] (setting [6]), 50%.

With `CCCS[C@H]1CO[C@H]2[C@@H]1OC[C@H]2O[N+](=O)[O-]` [Ej. 2, (3R,3aS,6S,6aS)-6-(propylthio)hexahydrofuro[3,2-b]furan-3-yl nitrate], the responders at 90 µmol/kg in assay [1] (setting [7]) amounted to 67%. In addition, the inhibition in vivo at 90 µmol/kg came out at 69% in assay [2] (setting [5]) and 8% in assay [2] (setting [8]).

For `C[S@@+]([O-])[C@H]1CO[C@H]2[C@@H]1OC[C@H]2O[N+](=O)[O-]` [Comp 6, (3R,3aS,6S,6aS)-6-((R)-methylsulfinyl)hexahydrofuro[3,2-b]furan-3-yl nitrate, reference compound], the responders at 90 µmol/kg in assay [1] (setting [9]) was found to be 40%; in assay [1] (setting [7]), 16%; in assay [1] (setting [3]) it was 0%; in assay [1] (setting [4]), 0%. Besides, the inhibition in vivo at 90 µmol/kg in assay [2] (setting [5]) worked out at 48%; in assay [2] (setting [8]) it was 0%.

Turning to `CCS(=O)(=O)[C@H]1CO[C@H]2[C@@H]1OC[C@H]2O[N+](=O)[O-]` [Ej. 7, (3R,3aS,6S,6aS)-6-(ethylsulfonyl)hexahydrofuro[3,2-b]furan-3-yl nitrate], the responders at 90 µmol/kg in assay [1] (setting [9]) is 50%; in assay [1] (setting [7]) it was 84%; in assay [1] (setting [3]), 32%; in assay [1] (setting [4]), 0%. Moreover, the values for the inhibition in vivo at 90 µmol/kg in assay [2] (setting [5]) and in assay [2] (setting [8]) were 81% and 23%, respectively.

Take `CCS[C@H]1CO[C@H]2[C@@H]1OC[C@H]2O[N+](=O)[O-]` [Ej. 1, (3R,3aS,6S,6aS)-6-(ethylthio)hexahydrofuro[3,2-b]furan-3-yl nitrate]: in assay [1] (rat, 1 h after dosage), the responders at 90 µmol/kg is 32%. The figures for the inhibition in vivo at 90 µmol/kg in assay [2] (1 h) and in assay [2] (4 h) were 29% and 0%, respectively.

`CCS(=O)(=O)[C@@H]1CO[C@H]2[C@@H]1OC[C@H]2O[N+](=O)[O-]` [Ej. 15, (3R,3aS,6R,6aS)-6-(ethylsulfonyl)hexahydrofuro[3,2-b]furan-3-yl nitrate]: the figures for the responders at 90 µmol/kg in assay [1] (setting [7]) and in assay [1] (setting [4]) were 9% and 0%, respectively. Further, the inhibition in vivo at 90 µmol/kg in assay [2] (setting [5]) was 21%; in assay [2] (setting [6]), 0%; in assay [2] (setting [8]), 0%.

Take `CCC[S+]([O-])[C@H]1CO[C@H]2[C@@H]1OC[C@H]2O[N+](=O)[O-]` (stereo partly drawn) [Ej. 5, (3R,3aS,6S,6aS)-6-((R,S)-propylsulfinyl)hexahydrofuro[3,2-b]furan-3-yl nitrate]: the responders at 90 µmol/kg in assay [1] (setting [9]) amounted to 40%; in assay [1] (setting [7]), 76%; in assay [1] (setting [3]), 67%; in assay [1] (setting [4]) it was 50%. Moreover, the inhibition in vivo at 90 µmol/kg in assay [2] (setting [5]) was 87%; in assay [2] (setting [8]), 58%.

As for `CCCS[C@@H]1CO[C@H]2[C@@H]1OC[C@H]2O[N+](=O)[O-]` [Ej. 12, (3R,3aS,6R,6aS)-6-(propylthio)hexahydrofuro[3,2-b]furan-3-yl nitrate], the responders at 90 µmol/kg in assay [1] (setting [7]) is 32%; in assay [1] (setting [4]), 16%. Further, the inhibition in vivo at 90 µmol/kg stood at 14% in assay [2] (setting [5]), 0% in assay [2] (setting [6]) and 0% in assay [2] (setting [8]).
